Results taken from US11957696B2 (Propella Therapeutics, Inc., priority 2021, dated 2024).
Like-named read-outs stand apart in the source and are kept apart here.

Tests used:
[1] = Tissue uptake study: plasma and tissue concentrations of abiraterone and abiraterone decanoate after single IV or IM injection; assay type: in vivo, rats, strain CD [Crl:CD(SD)]; details: CD [Crl:CD(SD)], rat, intramuscular, 90 mg/kg
Method: The objective of this study is to collect tissue samples for the determination of the uptake of abiraterone decanoate and abiraterone following intravenous (IV) and intramuscular (IM; abiraterone decanoate only) injection. Additionally, blood steroid levels also were evaluated.
Vehicle for IM injection: Corn oil with 10% benzyl alcohol (w/v) and 20% benzyl benzoate (w/v). The study followed the protocols described below.
For intramuscular injections, the test article and vehicle will be administered once as a single intramuscular dose on Day 1 to animals in Groups 1 and 3. Doses will be administered via bolus intramuscular injection into the biceps femoris on the hind legs. The Test article will be warmed at 35° C. (±5°) for at least 1 hour prior to dosing. Individual doses will be based on the most recent body weights.
For IV injections, the test article will be administered once on Day 1 as a single intravenous bolus injection to animals in Groups 2 and 4. The test article will be administered via the tail vein as a bolus intravenous injection (less than 2 minutes). Individual doses will be based on the most recent body weights.
For serum steroid analysis, blood samples were collected from animals in each study group at predose and at terminal necropsy according to the following protocol. Animals were designated for 72 hr and 168 hr necropsy, the animals will be fasted overnight before scheduled blood collections. Plasma samples will be used for ACTH level analysis. Serum samples will be used for LH level analysis and steroid level analysis. Plasma samples will also be collected at various time points and be analyzed for abiraterone decanoate and abiraterone. Representative samples of tissues will be collected and snap frozen and analyzed. Lung, Liver, Adrenal glands, Prostate, Testes (Sample 1 and 2) and lymph nodes tissues will be collected. Lymph node(s) draining administration site(s): Inguinal (Groups 1-4) and Iliac (Groups 1 and 3 only). Lymph node, mandibular and Lymph node mesenteric tissues will also be collected.

[2] = cynomolgus monkey, in vivo
Method: Test system/animals: gonadally intact, sexually mature, male cynomolgus monkeys. Administration of Test Materials: The vehicle control and test article were administered once every 2 weeks for 13 weeks (Days 1, 15, 29, 43, 57, and 71) during the study via intramuscular injection. […] The dose levels were 20, 60, or 200 mg/kg/dose and administered at a dose volume of 0.10, 0.15, and 0.25 mL/kg/site, respectively. The control group received the vehicle control in the same manner as the treated groups at a dose volume of 0.25 mL/kg/site.
The vehicle control and test article formulations were administered via bolus intramuscular injection into the epaxial muscles of the lumbar back. Animals at 0 and 200 mg/kg/dose were dosed in 4 dose sites, animals at 20 mg/kg/dose were dosed in 1 dose site, and animals at 60 mg/kg/dose were dosed in 2 dose sites. The needle (23-gauge, ⅝-inch) was inserted perpendicular to the skin surface. The location of the injection site was documented for each dose. In addition, each injection site was marked with a single large dot at the exact site of needle insertion, for purposes of erythema and swelling evaluation. Each injection site was remarked at least once weekly and prior to necropsy.
Individual doses were based on the most recent body weights. Formulations were warmed at 35° C. (±5° C.) for at least 1 hour prior to dosing.
The following parameters and endpoints were evaluated in this study: mortality, clinical signs, body weights, body weight gains, ophthalmology and electrocardiographic examinations, clinical pathology parameters (hematology, coagulation, clinical chemistry, and urinalysis), LH and ACTH analyses, toxicokinetic parameters, gross necropsy findings, organ weights, and histopathologic examinations. Statistical analyses were performed using Group Pair-wise Comparisons (general ANOVA).

SMILES: CCCCCCCCCC(=O)O[C@H]1CC[C@@]2(C)C(=CC[C@@H]3[C@@H]2CC[C@]2(C)C(c4cccnc4)=CC[C@@H]32)C1 [Abiraterone Decanoate, abiraterone decanoate]
- concentration at 7 days ([1]; iliac lymph node, read-out: Decanoate concentration, iliac lymph): 91000 ng/g
- concentration at 7 days ([1]; inguinal lymph node, read-out: Decanoate concentration, Inguinal Lymph): 254 ng/g
- concentration at 7 days ([1]; liver, read-out: Decanoate concentration, Liver): 10.4 ng/g
- concentration at 7 days ([1]; lung, read-out: Decanoate concentration, Lung): 735 ng/g
- concentration at 7 days ([1]; male, adrenal, read-out: Decanoate concentration, Adrenal): 12.1 ng/g
- concentration at 7 days ([1]; male, plasma, read-out: Decanoate concentration, Plasma): 3.1 ng/mL
- concentration at 7 days ([1]; male, prostate, read-out: Decanoate concentration, Prostate): 0 ng/g
- concentration at 7 days ([1]; male, testes, read-out: Decanoate concentration, Testes): 1.3 ng/g
- adrenal gland changes [2]: minimal to moderate cortical hypertrophy
- clinical observations [2]: swelling and/or nodules at the injection sites
- findings in the lung [2]: minimal to moderate granulomatous inflammation
- ophthalmology findings, qualitative or quantitative ECG parameters [2]: no effect
- test article-related changes in the epididymis [2]: mild to severe reduced luminal sperm and/or minimal to mild increased germ cell debris
- test article-related changes in the prostate gland [2]: mild to moderate prostate gland atrophy
- test article-related changes in the seminal vesicle [2]: minimal to mild seminal vesicle atrophy
- test article-related changes in the testes [2]: minimal to moderate germ cell depletion and minimal to mild Leydig cell hypertrophy
- test article-related changes in the thymus [2]: minimal to mild increased lymphocytes
- test article-related findings in the mammary gland [2]: minimal to mild lobular and/or duct hyperplasia
- microscopic findings at terminal necropsy ([2]; 20 mg/kg): test article-related microscopic findings
- albumin concentration ([2]; 20 mg/kg/day): minimal decreases
- microscopic findings at terminal necropsy ([2]; 60 mg/kg): test article-related microscopic findings
- mean corpuscular volume (MCV) and mean corpuscular hemoglobin (MCH) ([2]; 200 mg/kg): minimal decreases
- red cell distribution width (RDW) ([2]; 200 mg/kg): minimal increase
- highest non-severely toxic dose ([2]; male, 13 weeks): 60 mg/kg/dose
